Where two headings read alike, the source gives them in different places.
Legend:
HBV [1] = assay: anti-HBV activity in stable transfected HepG2.2.15 cell line, HBV DNA from secreted virions by realtime PCR; format: cell-based, Hepatitis B virus; conditions: read-out: HBV-HepG2 2.15 EC50
[2] = Cytotoxicity in HepG2 cells using CellTiter-Blue, same incubation period as HepG2.2.15 assay; format: cell-based; conditions: human
Method: Cytotoxicity of the compounds was tested in HepG2 cells using CellTiter-Blue, with the same incubation period and dose range as in the HepG2.2.15 assay.

HBV [3] = assay: anti HBV activity in HepG2.117 cell line (Tet-off, inducibly HBV producing), intracellular HBV DNA by realtime PCR; format: cell-based, Hepatitis B virus; conditions: read-out: HepG2 117 EC50
[4] = Cytotoxicity in HepG2 cells incubated 4 days, Resazurin assay; conditions: human, HepG2 4 days CC50, HepG2 cells
[5] = HepG2.2.15 cells, 6 days of treatment, secreted virion HBV DNA
[6] = HepG2 cells, 6 days, CellTiter-Blue, read-out: HepG2 6 days CC50
[7] = Hepatitis B virus, HepG2.117, 72 h, HepG2.117 cells, 3 days of treatment, intracellular HBV DNA
[8] = Hepatitis B virus, HepG2.2.15, 144 h, HepG2.2.15 cells, 6 days of treatment, secreted virion HBV DNA
[9] = HepG2.117 cells, 3 days of treatment, intracellular HBV DNA
[10] = Hepatitis B virus, HepG2.2.15, 144 h
[11] = Hepatitis B virus, HepG2.117, 72 h

Row | SMILES | CC50 at 6 days [2, 6] | EC50 (HBV [3]; [7]) | CC50 at 4 days [4] | EC50 (HBV [1]; [8]) | further results
1 | CCOC(=O)C1=C(CN2CCOCC2)NC(c2ccccn2)=NC1(C)c1ccc(F)cc1 (racemic) [Compound 4] | 51.1 µM | 0.66 µM | > 25 µM |  | EC50 (HBV [1]; [5]): 1.92 µM
2 | N#CC1=C(CN2CCOCC2)NC(c2ccccn2)=NC12CCCc1cc(F)ccc12 (racemic) [Compound 60] | > 100 µM | 2.5 µM | > 25 µM | 2.83 µM | 
3 | COC(=O)C1=C(C)NC(c2nccs2)=NC1(C)c1ccc(F)c(F)c1 (racemic) [Compound 155] |  | 14 µM |  | 0.744 µM | 
4 | COC(=O)C1=C(C)NC(c2ncccc2F)=NC1(C)c1ccc(F)c(F)c1 (racemic) [Compound 158] |  | 4.56 µM | > 25 µM |  | 
5 | COC(=O)C1=C(C)NC(SC)=NC1(C)c1ccc(F)c(F)c1 (racemic) [Compound 160] |  | 23.7 µM | > 25 µM | 0.717 µM | 
6 | N#CC1=C(CN2CCOCC2)NC(c2ccccn2)=NC12CCCc1cc(F)ccc12 (single isomer, unassigned) [Compound 60a] | > 100 µM |  | > 100 µM |  | EC50 (HBV [1]; [5]): > 100 µM; EC50 (HBV [3]; [9]): > 100 µM
7 | COC(=O)C1=C(C)NC(c2ncc(F)cc2F)=NC1(C)c1ccc(F)c(F)c1 (single isomer, unassigned) [Compound 132a] |  | > 25 µM | 21.1 µM | > 100 µM | 
8 | COC(=O)C1=C(C)NC(c2ncc(F)cc2F)=NC1(c1ccc(F)c(F)c1)C(F)F (single isomer, unassigned) [Compound 151a] |  |  | > 25 µM |  | EC50 (HBV [1]; [5]): > 100 µM; EC50 (HBV [3]; [9]): > 25 µM
9 | COC(=O)C1=C(C)NC(c2nccs2)=NC1(C)c1ccc(F)c(F)c1 (single isomer, unassigned) [Compound 155a] |  | 17.1 µM |  |  | EC50 (HBV [1]; [5]): 0.983 µM
10 | COC(=O)C1=C(C)NC(c2nccs2)=NC1(C)c1ccc(F)c(F)c1 (single isomer, unassigned) [Compound 155b] |  |  |  |  | EC50 (HBV [1]; [5]): > 100 µM; EC50 (HBV [3]; [9]): > 25 µM
11 | COC(=O)C1=C(C)NC(c2ncccc2F)=NC1(C)c1ccc(F)c(F)c1 (single isomer, unassigned) [Compound 158a] |  |  | > 25 µM |  | EC50 (HBV [3]; [9]): 2.44 µM
12 | COC(=O)C1=C(C)NC(c2ncccn2)=NC1(C)c1ccc(F)c(F)c1 (single isomer, unassigned) [Compound 159a] |  | 25 µM | > 25 µM |  | EC50 (HBV [1]; [5]): 37.5 µM
13 | COC(=O)C1=C(C)NC(SC)=NC1(C)c1ccc(F)c(F)c1 (single isomer, unassigned) [Compound 160a] |  |  | > 25 µM |  | EC50 (HBV [1]; [5]): > 50 µM; EC50 (HBV [3]; [9]): > 25 µM
14 | COC(=O)C1=C(C#N)NC(c2ncc(F)cc2F)=NC1(C)c1ccc(F)c(F)c1 (single isomer, unassigned) [Compound 163a] |  | > 25 µM | > 25 µM | 69.5 µM | 
15 | COC(=O)C1=C(C)NC(c2ncc(F)cc2F)=NC1(C)c1ccc(F)c(F)c1 (stereo not drawn) [132b (−)-camphanic acid] |  |  |  |  | EC50 (HBV [1]; [5]): 0.489 µM
16 | COC(=O)C1=C(CN2CCOCC2)NC(c2ccccn2)=NC1(C)c1ccc(F)cc1 (stereo not drawn) [Compound 2] | > 100 µM | 0.25 µM | > 50 µM | 0.669 µM | 
17 | CCOC(=O)C1=C(C#N)NC(c2ccccn2)=NC1(C)c1ccc(F)cc1 (stereo not drawn) [Compound 5] | > 100 µM |  |  | > 100 µM | 
18 | CCOC(=O)C1=C(C)NC(c2ccccn2)=NC1(C)c1ccc(F)cc1 (stereo not drawn) [Compound 6] | > 25 µM |  |  | > 25 µM | 
19 | CCOC(=O)C1=C(CN2CCCC2)NC(c2ccccn2)=NC1(C)c1ccc(F)cc1 (stereo not drawn) [Compound 7] | 13.4 µM |  |  | > 100 µM | 
20 | CCOC(=O)C1=C(CN2CCSCC2)NC(c2ccccn2)=NC1(C)c1ccc(F)cc1 (stereo not drawn) [Compound 8] | 54.3 µM | 3.3 µM | > 50 µM | 14.8 µM | 
21 | CCOC(=O)C1=C(CN2CCCCC2)NC(c2ccccn2)=NC1(C)c1ccc(F)cc1 (stereo not drawn) [Compound 9] | 62.4 µM |  |  | > 100 µM | 

Row | SMILES | CC50 at 6 days [2, 6] | EC50 (HBV [3]; [7]) | CC50 at 4 days [4] | EC50 (HBV [1]; [8]) | further results
22 | CCOC(=O)C1=C(C(F)(F)C(F)(F)F)NC(c2ccccn2)=NC1(C)c1ccc(F)cc1 (stereo not drawn) [Compound 11] | > 100 µM |  |  | > 100 µM | 
23 | CCOC(=O)C1=C(C)NC(c2nccs2)=NC1(C)c1ccc(F)c(Cl)c1 (stereo not drawn) [Compound 21] | 17.5 µM |  |  | 12.7 µM | 
24 | CCOC(=O)C1=C(C)NC(c2ccccn2)=NC1(c1ccc(F)cc1)C(F)(F)F (stereo not drawn) [Compound 35] | 68.1 µM |  |  | > 100 µM | 
25 | CCOC(=O)C1=C(C)NC(c2ccccn2)=NC12CCc1cc(F)ccc12 (stereo not drawn) [Compound 40] |  |  |  | 14 µM | CC50 at 6 days ([2]; HepG2 6 days CC50): 77 µM
26 | N#CC1=C(CN2CCOCC2)NC(c2ccccn2)=NC12CCCc1ccccc12 (stereo not drawn) [Compound 61] | > 100 µM |  |  | 18 µM | 
27 | COC(=O)C1=C(C)NC(c2ncc(F)cc2C)=NC12CCCc1cc(F)ccc12 (stereo not drawn) [Compound 81] |  |  |  | 19.9 µM | CC50 at 6 days ([2]; HepG2 6 days CC50): > 50 µM
28 | COC(=O)C1=C(C)NC(c2ncc(F)cc2F)=NC1(C)c1ccc(F)c(F)c1 (stereo not drawn) [Compound 132b] |  |  | > 25 µM |  | EC50 (HBV [1]; [10]): 0.784 µM; EC50 (HBV [3]; [11]): 0.474 µM
29 | COC(=O)C1=C(C)NC(c2ccc(F)cn2)=NC1(C)c1ccc(F)c(F)c1 (stereo not drawn) [Compound 133] |  |  | > 25 µM |  | EC50 (HBV [1]; [10]): 17.3 µM; EC50 (HBV [3]; [11]): 4.33 µM
30 | COC(=O)C1=C(C2CC2)NC(c2ncc(F)cc2F)=NC1(C)c1ccc(F)c(F)c1 (stereo not drawn) [Compound 142] |  | 3.37 µM | > 25 µM | 11.5 µM | 
31 | COC/C=C/C1=C(C(=O)OC)C(C)(c2ccc(F)c(F)c2)N=C(c2ncc(F)cc2F)N1 (stereo not drawn) [Compound 147] |  | 3.17 µM | > 25 µM | 2.73 µM | 
32 | COC(=O)C1=C(C)NC(c2ncc(F)cc2F)=NC1(C)c1ccc(F)c(Cl)c1 (stereo not drawn) [Compound 148] |  | > 25 µM | 17.2 µM |  | 
33 | COC(=O)C1=C(C)NC(c2ncc(F)cc2F)=NC1(C)c1ccc(F)c(C)c1 (stereo not drawn) [Compound 149] |  | 3.26 µM | > 25 µM | 23.8 µM | 
34 | COC(=O)C1=C(CN2CCOCC2)NC(c2ncc(F)cc2F)=NC1(C)c1ccc(F)c(Cl)c1 (stereo not drawn) [Compound 150] |  | 0.694 µM | > 25 µM | 1.35 µM | 
35 | COCC1=C(C(=O)OC)C(C)(c2ccc(F)c(F)c2)N=C(c2ncc(F)cc2F)N1 (stereo not drawn) [Compound 152] |  | 2.88 µM | > 25 µM | 3.38 µM | 
36 | C=CC1=C(C(=O)OC)C(C)(c2ccc(F)c(F)c2)N=C(c2ncc(F)cc2F)N1 (stereo not drawn) [Compound 153] |  | 3.31 µM | > 25 µM | 12.9 µM | 
37 | COC(=O)C1=C(C)NC(c2ncc(F)cc2C)=NC1(C)c1ccc(F)c(F)c1 (stereo not drawn) [Compound 154] |  | 17.6 µM | > 25 µM | 27.5 µM | 
38 | COC(=O)C1=C(C)NC(c2ncc(F)cc2F)=NC1(C)c1ccc(Cl)c(F)c1 (stereo not drawn) [Compound 156] |  | 0.669 µM | > 25 µM | 1.11 µM | 
39 | COC(=O)C1=C(C)NC(c2ncc(F)cc2F)=NC1(C)c1ccc(C)c(F)c1 (stereo not drawn) [Compound 157] |  | 3.06 µM | > 25 µM | 9.52 µM | 
40 | COC(=O)C1=C(C)NC(c2cnccn2)=NC1(C)c1ccc(F)c(F)c1 (stereo not drawn) [Compound 161] |  | > 25 µM |  |  | 
41 | COC(=O)C1=C(C)NC(c2nccn2C)=NC1(C)c1ccc(F)c(F)c1 (stereo not drawn) [Compound 162] |  | > 25 µM | > 25 µM | > 25 µM | 

Source: US9233933B2, “4,4-disubstituted-1,4-dihydropyrimidines and the use thereof as medicaments for the treatment of hepatitis B” (priority 2012, dated 2016)
